Legend:
[1] = system: control sera (pooled serum of ten healthy LUMC hospital workers; commercial negative donor pooled serum from the Dutch bloodbank); type: binding, human; design: Binding of Control serum LUMC to linear peptides / Binding of Control serum Blood-bank to linear peptides / Binding of Control serum LUMC to looped peptides / Binding of Control Serum Blood-Bank to Looped peptides / Binding of Control serum LUMC to linear peptides of the protein M of SARS-CoV Urbani / Binding of Control serum Blood-bank to linear peptides of the protein M of SARS-CoV Urbani / Binding of Control serum LUMC to looped peptides of the protein M of SARS-CoV Urbani / Binding of Control Serum Blood-Bank to Looped peptides of the protein M of SARS-CoV Urbani: unit not given here
[2] = system: antibodies in sera from SARS patients (sera 1a, 1b, 2, 6, 37, 62, London, SARS-yellow, SARS-green); type: binding, human; design: Binding of serum 6 to linear peptides of protein X1 of SARS-CoV Urbani / Binding of serum 37 to linear peptides of protein X1 of SARS-CoV Urbani / Binding of serum 6 to looped/cyclic peptide (PEPSCAN-ELISA) / Binding of serum 37 to looped/cyclic peptide (PEPSCAN-ELISA) / Binding of serum 37 to looped/cyclic peptides of protein X1 of SARS-CoV Urbani / Binding of serum 6 to linear peptides of protein X2 / Binding of serum 37 to linear peptides of protein X2 / Binding of serum 37 to looped/cyclic peptides of protein X2 of SARS-CoV Urbani / Binding of serum 6 to linear peptides of protein M of SARS-CoV Urbani / Binding of serum 37 to linear peptides of protein M of SARS-CoV Urbani / Binding of serum 6 to looped/cyclic peptides of protein M of SARS-CoV Urbani / Binding of serum 37 to looped/cyclic peptides of protein M of SARS-CoV Urbani / Binding of serum 6 to linear peptides of protein X3 of SARS-CoV Urbani / Binding of serum 37 to linear peptides of protein X3 of SARS-CoV Urbani / Binding of serum 37 to looped/cyclic peptides of protein X3 of SARS-CoV Urbani / Binding of serum 6 to linear peptides of protein X4 of SARS-CoV Urbani / Binding of serum 37 to linear peptides of protein X4 of SARS-CoV Urbani / Binding of serum 37 to looped/cyclic peptides of protein X4 of SARS-CoV Urbani / Binding of serum 6 to linear peptides of protein X5 of SARS-CoV Urbani / Binding of serum 37 to linear peptides of protein X5 of SARS-CoV Urbani / Binding of serum 37 to looped/cyclic peptides of protein X5 of SARS-CoV Urbani / Binding of serum 6 to linear peptides of protein N of SARS-CoV Urbani / Binding of serum 37 to linear peptides of protein N of SARS-CoV Urbani / Binding of serum 6 to linear peptide (PEPSCAN-ELISA) / Binding of serum 1a to looped/cyclic peptides of protein N of SARS-CoV Urbani / Binding of serum 1b to looped/cyclic peptides of protein N of SARS-CoV Urbani / Binding of serum 2 to looped/cyclic peptides of protein N of SARS-CoV Urbani / Binding of serum 6 to looped/cyclic peptides of protein N of SARS-CoV Urbani / Binding of serum 37 to looped/cyclic peptides of protein N of SARS-CoV Urbani / Binding of serum 62 to looped/cyclic peptides of protein N of SARS-CoV Urbani / Binding of serum London to looped/cyclic peptides of protein N of SARS-CoV Urbani / Binding of serum SARS-green to looped/cyclic peptides of protein N of SARS-CoV Urbani: unit not given here
[3] = system: rabbit serum obtained by immunizing a rabbit with the SARS-CoV strain Frankfurt 1; type: binding; design: Binding of a rabbit serum to linear peptides / Binding of a rabbit serum to looped peptides / Rabbit serum linear peptides / Rabbit serum looped peptides / Binding of a rabbit serum to linear peptides of protein N of SARS-CoV Urbani (Rabbit serum linear peptides) / Binding of a rabbit serum to looped/cyclic peptides of protein N of SARS-CoV Urbani (Rabbit serum looped peptides): unit not given here

Sequence	Binding of Control Serum Blood-Bank to Looped peptides [1]	Binding of Control serum Blood-bank to linear peptides [1]	Binding of Control serum LUMC to linear peptides [1]	Binding of Control serum LUMC to looped peptides [1]	Rabbit serum linear peptides [3]	Rabbit serum looped peptides [3]	Binding of serum 1a to linear peptides of protein X1 of SARS-CoV Urbani [2]	Binding of serum 1a to looped/cyclic peptide (PEPSCAN-ELISA) [2]	Binding of serum 1b to linear peptides of protein X1 of SARS-CoV Urbani [2]	Binding of serum 1b to looped/cyclic peptide (PEPSCAN-ELISA) [2]	Binding of serum 2 to linear peptides of protein X1 of SARS-CoV Urbani [2]	Binding of serum 2 to looped/cyclic peptide (PEPSCAN-ELISA) [2]	Binding of serum 6 to linear peptides of protein X1 of SARS-CoV Urbani [2]	Binding of serum 6 to looped/cyclic peptide (PEPSCAN-ELISA) [2]	Binding of serum 37 to linear peptides of protein X1 of SARS-CoV Urbani [2]	Binding of serum 37 to looped/cyclic peptide (PEPSCAN-ELISA) [2]	Binding of serum 62 to linear peptides of protein X1 of SARS-CoV Urbani [2]	Binding of serum 62 to looped/cyclic peptide (PEPSCAN-ELISA) [2]	Binding of serum London to linear peptides of protein X1 of SARS-CoV Urbani [2]	Binding of serum London to looped/cyclic peptide (PEPSCAN-ELISA) [2]	other results
ALIARCWYLHEGHQT	0.4	0.6	0.4	0.1	0.6	0.0															Binding of serum 1a to linear peptides of protein X5 of SARS-CoV Urbani [2]: 0.6; Binding of serum 1a to looped/cyclic peptides of protein X5 of SARS-CoV Urbani [2]: 0.6; Binding of serum 1b to linear peptides of protein X5 of SARS-CoV Urbani [2]: 0.5; Binding of serum 1b to looped/cyclic peptides of protein X5 of SARS-CoV Urbani [2]: 0.1; Binding of serum 2 to linear peptides of protein X5 of SARS-CoV Urbani [2]: 0.6; Binding of serum 2 to looped/cyclic peptides of protein X5 of SARS-CoV Urbani [2]: 0.5; Binding of serum 6 to linear peptides of protein X5 of SARS-CoV Urbani [2]: 0.5; Binding of serum 6 to looped/cyclic peptides of protein X5 of SARS-CoV Urbani [2]: 0.3; Binding of serum 37 to linear peptides of protein X5 of SARS-CoV Urbani [2]: 0.7; Binding of serum 37 to looped/cyclic peptides of protein X5 of SARS-CoV Urbani [2]: 0.4; Binding of serum 62 to linear peptides of protein X5 of SARS-CoV Urbani [2]: 0.7; Binding of serum 62 to looped/cyclic peptides of protein X5 of SARS-CoV Urbani [2]: 0.4; Binding of serum London to linear peptides of protein X5 of SARS-CoV Urbani [2]: 0.6; Binding of serum London to looped/cyclic peptides of protein X5 of SARS-CoV Urbani [2]: 0.1; Binding of serum SARS-green to linear peptides of protein X5 of SARS-CoV Urbani [2]: 0.7; Binding of serum SARS-green to looped/cyclic peptides of protein X5 of SARS-CoV Urbani [2]: 0.0; Binding of serum SARS-yellow to linear peptides of protein X5 of SARS-CoV Urbani [2]: 0.2; Binding of serum SARS-yellow to looped/cyclic peptides of protein X5 of SARS-CoV Urbani [2]: 0.0
ALIYFLQCINACRII	0.5	0.5	0.5	0.3			0.6	0.3	0.6	0.2	0.5	0.4	0.4	0.9	0.7	0.3	0.6	0.3	0.3	1.3	Binding of serum SARS-green to linear peptides of protein X1 of SARS-CoV Urbani [2]: 0.1; Binding of serum SARS-green to looped/cyclic peptide (PEPSCAN-ELISA) [2]: 0.3; Binding of serum SARS-yellow to linear peptides of protein X1 of SARS-CoV Urbani [2]: 0.4; Binding of serum SARS-yellow to looped/cyclic peptide (PEPSCAN-ELISA) [2]: 0.1; Binding of a rabbit serum to linear peptides [3]: 0.7; Binding of a rabbit serum to looped peptides [3]: 0.6
ALNKRWQLALYKGFQ	0.9	0.6	0.6	0.8			0.7	0.8	0.6	0.6	0.5	0.7	0.5	0.6	0.6	0.6	0.5	0.7	0.2	0.3	Binding of serum SARS-green to linear peptides of protein X1 of SARS-CoV Urbani [2]: 0.2; Binding of serum SARS-green to looped/cyclic peptide (PEPSCAN-ELISA) [2]: 0.4; Binding of serum SARS-yellow to linear peptides of protein X1 of SARS-CoV Urbani [2]: 0.4; Binding of serum SARS-yellow to looped/cyclic peptide (PEPSCAN-ELISA) [2]: 0.6; Recognition of the peptide by the rabbit serum [3]: recognized
ALTCTSTHFAFACAD	0.9	0.7	0.8	0.8	0.6	0.6															Binding of serum 1a to linear peptides of protein X4 of SARS-CoV Urbani [2]: 0.8; Binding of serum 1a to looped/cyclic peptides of protein X4 of SARS-CoV Urbani [2]: 0.8; Binding of serum 1b to linear peptides of protein X4 of SARS-CoV Urbani [2]: 0.8; Binding of serum 1b to looped/cyclic peptides of protein X4 of SARS-CoV Urbani [2]: 0.7; Binding of serum 2 to linear peptides of protein X4 of SARS-CoV Urbani [2]: 0.5; Binding of serum 2 to looped/cyclic peptides of protein X4 of SARS-CoV Urbani [2]: 0.7; Binding of serum 6 to linear peptides of protein X4 of SARS-CoV Urbani [2]: 0.6; Binding of serum 6 to looped/cyclic peptides of protein X4 of SARS-CoV Urbani [2]: 0.7; Binding of serum 37 to linear peptides of protein X4 of SARS-CoV Urbani [2]: 0.9; Binding of serum 37 to looped/cyclic peptides of protein X4 of SARS-CoV Urbani [2]: 0.9; Binding of serum 62 to linear peptides of protein X4 of SARS-CoV Urbani [2]: 0.9; Binding of serum 62 to looped/cyclic peptides of protein X4 of SARS-CoV Urbani [2]: 0.9; Binding of serum London to linear peptides of protein X4 of SARS-CoV Urbani [2]: 0.8; Binding of serum London to looped/cyclic peptides of protein X4 of SARS-CoV Urbani [2]: 0.3; Binding of serum SARS-green to linear peptides of protein X4 of SARS-CoV Urbani [2]: 0.8; Binding of serum SARS-green to looped/cyclic peptides of protein X4 of SARS-CoV Urbani [2]: 0.8; Binding of serum SARS-yellow to linear peptides of protein X4 of SARS-CoV Urbani [2]: 0.7; Binding of serum SARS-yellow to looped/cyclic peptides of protein X4 of SARS-CoV Urbani [2]: 0.8
